These results are taken from ChEMBL document CHEMBL3352791, “Thioaryl naphthylmethanone oxime ether analogs as novel anticancer agents” (J Med Chem, 2014).

The subject of one data set is Ishikawa. Put plainly: Antiproliferative activity against human ER-positive Ishikawa cells after 24 hrs by MTT assay. It is filed as functional, cell-based.
The nature of data set [1]: Safety index, ratio of IC50 for human MCF10A cells to EC50 for human ER-positive MDA-MB-231 cells. The settings on record: MCF10A cells versus.
Data set [2] is described as follows: Cytotoxicity against human MCF10A cells after 72 hrs by MTT assay. It is filed as ADME, cell-based. The settings on record: MCF-10A.
The test system of a further data set is HeLa. The data set is described as follows: Antiproliferative activity against human HeLa cells after 24 hrs by MTT assay. The class given is functional, cell-based.
Data set [3] concerns MCF7. The data set is described as follows: Antiproliferative activity against human ER-negative MCF7 cells after 24 hrs by MTT assay. It is filed as functional, cell-based.
Another data set in a line: in vitro. The note with it: human, MCF10A cells versus.
Data set [4] in a line: Antiproliferative activity against human prostate, androgen receptor positive DU145 cells after 24 hrs by MTT assay. The class given is functional, cell-based, DU-145.
The test system of data set [5] is MDA-MB-231. The data set is described as follows: Antiproliferative activity against human ER-positive MDA-MB-231 cells after 24 hrs by MTT assay. The class given is functional, cell-based.
The test system of data set [6] is MCF7. Put plainly: Antiproliferative activity against human ER-negative MCF7 cells after 72 hrs by MTT assay. The settings on record: MCF7, 72 h. It is filed as functional, cell-based.
For data set [7], the system named is MDA-MB-231. Put plainly: Antiproliferative activity against human ER-positive MDA-MB-231 cells after 72 hrs by MTT assay. It is filed as functional, cell-based. The settings on record: MDA-MB-231, 72 h.

Some results are limits rather than exact numbers.

Turning to `CSc1ccc(/C(=N\OCCN2CCCC2)c2cccc3ccccc23)cc1`, the 50% effective concentration (EC50) was 6 µM with Ishikawa (Homo sapiens, Ishikawa, 24 h); 6.6 µM in the data set on HeLa (Homo sapiens, HeLa, 24 h); 6.6 µM with MCF7 [3] (Homo sapiens, MCF7, 24 h); 9.5 µM in [4] (Homo sapiens, DU-145, 24 h); 5.01 µM in the data set on MDA-MB-231 [5] (Homo sapiens, MDA-MB-231, 24 h); 5 µM with MCF7 [6]. For the same compound, in the data set on MDA-MB-231 [7], a half-maximal response (EC50) required 3.8 µM. Moreover, the selectivity ratio in data set [1] amounted to 1.4; in “in vitro”, 1.1. For the same compound, the IC50 in [2] turned out to be 5.5 µM.

In the case of `CCN(CC)CCO/N=C(\c1ccc(SC)cc1)c1cccc2ccccc12` [listing 1 of 3 here], the EC50 was 15 µM in the data set on Ishikawa (ishikawa), 14.8 µM with MCF7 [3] (mcf7), 18.5 µM in data set [4] (du-145) and 11.2 µM in the data set with MDA-MB-231 [5] (mda-mb-231).

As for `CSc1ccc(/C(=N\OCCN2CCCCC2)c2cccc3ccccc23)cc1`, the EC50 was determined as 10 µM with Ishikawa (Homo sapiens, Ishikawa, 24 h); 13.5 µM in the data set with HeLa (Homo sapiens, HeLa, 24 h); 13.5 µM in the data set on MCF7 [3] (Homo sapiens, MCF7, 24 h); 10 µM in data set [4] (Homo sapiens, DU-145, 24 h); 8.8 µM in the data set with MDA-MB-231 [5] (Homo sapiens, MDA-MB-231, 24 h).

In the case of `CSc1ccc(/C(=N\OCCCCN2CCCCC2)c2cccc3ccccc23)cc1`, the EC50 stood at 18 µM in the data set with Ishikawa (Homo sapiens, Ishikawa, 24 h); 18 µM with HeLa (Homo sapiens, HeLa, 24 h); 8 µM with MCF7 [3] (Homo sapiens, MCF7, 24 h); 7.5 µM in data set [4] (Homo sapiens, DU-145, 24 h); 18 µM in the data set with MDA-MB-231 [5] (Homo sapiens, MDA-MB-231, 24 h); 8 µM with MCF7 [6]. In the data set with MDA-MB-231 [7], this compound had an EC50 of 18 µM. Also, the values for the selectivity ratio (in data set [1]; in “in vitro”) were 0.5 and 1.2, respectively. In addition, the IC50 in [2] turned out to be 10 µM.

With `CSc1ccc(/C(=N\OCCCN2CCOCC2)c2cccc3ccccc23)cc1`, the EC50 in the data set on Ishikawa (Homo sapiens, Ishikawa, 24 h) is more than 50 µM; with HeLa (Homo sapiens, HeLa, 24 h) it was more than 50 µM; with MCF7 [3] (Homo sapiens, MCF7, 24 h), more than 50 µM; in [4] (Homo sapiens, DU-145, 24 h), more than 50 µM; in the data set with MDA-MB-231 [5] (Homo sapiens, MDA-MB-231, 24 h), more than 50 µM.

As to `CSc1ccc(/C(=N\OCCCN2CCC(C)CC2)c2cccc3ccccc23)cc1`, the EC50 in the data set on Ishikawa (Homo sapiens, Ishikawa, 24 h) was more than 50 µM; in the data set on HeLa (Homo sapiens, HeLa, 24 h) it was more than 50 µM; with MCF7 [3] (Homo sapiens, MCF7, 24 h), 6.5 µM; in data set [4] (Homo sapiens, DU-145, 24 h), 10 µM; with MDA-MB-231 [5] (Homo sapiens, MDA-MB-231, 24 h) it was 20 µM.

With `COc1ccc(/C(=N\OCCN2CCCCC2)c2cccc3ccccc23)cc1`, the EC50 with Ishikawa (Homo sapiens, Ishikawa, 24 h) is more than 50 µM; in the data set on HeLa (Homo sapiens, HeLa, 24 h) it was 15 µM; in the data set on MCF7 [3] (Homo sapiens, MCF7, 24 h) it was 18 µM; in data set [4] (Homo sapiens, DU-145, 24 h), more than 50 µM; with MDA-MB-231 [5] (Homo sapiens, MDA-MB-231, 24 h), more than 50 µM.

Consider `CCCCC(CC)CNCCCO/N=C(\c1ccc(OC)cc1)c1cccc2ccccc12` (centres undefined), for which the EC50 in the data set on Ishikawa (Homo sapiens, Ishikawa, 24 h) was more than 50 µM; with HeLa (Homo sapiens, HeLa, 24 h) it was more than 50 µM; with MCF7 [3] (Homo sapiens, MCF7, 24 h) it was more than 50 µM; in data set [4] (Homo sapiens, DU-145, 24 h), more than 50 µM; with MDA-MB-231 [5] (Homo sapiens, MDA-MB-231, 24 h), more than 50 µM.

Regarding `CCN(CC)CCO/N=C(\c1ccc(SC)cc1)c1cccc2ccccc12` [listing 2 of 3 here], the EC50 worked out at 20 µM in the data set with Ishikawa (ishikawa), 18.5 µM with MCF7 [3] (mcf7), 20 µM in data set [4] (du-145) and 14.8 µM in the data set with MDA-MB-231 [5] (mda-mb-231).

Turning to `CCN(CC)C(=O)CO/N=C(\c1ccc(SC)cc1)c1cccc2ccccc12`, the concentration giving a half-maximal response (EC50) with Ishikawa (Homo sapiens, Ishikawa, 24 h) is more than 50 µM; with HeLa (Homo sapiens, HeLa, 24 h) it was 25 µM; in the data set with MCF7 [3] (Homo sapiens, MCF7, 24 h) it was 28 µM; in data set [4] (Homo sapiens, DU-145, 24 h), more than 50 µM; in the data set on MDA-MB-231 [5] (Homo sapiens, MDA-MB-231, 24 h), 30 µM.

`CSc1ccc(/C(=N\OCCN(C)C)c2cccc3ccccc23)cc1`: the EC50 was 9 µM in the data set on Ishikawa (Homo sapiens, Ishikawa, 24 h); 14 µM in the data set on HeLa (Homo sapiens, HeLa, 24 h); 14 µM in the data set on MCF7 [3] (Homo sapiens, MCF7, 24 h); 15 µM in [4] (Homo sapiens, DU-145, 24 h); 12.8 µM in the data set with MDA-MB-231 [5] (Homo sapiens, MDA-MB-231, 24 h).

For `CSc1ccc(/C(=N\OCCCCN2CCCC2)c2cccc3ccccc23)cc1`, the EC50 is more than 50 µM in the data set with Ishikawa (Homo sapiens, Ishikawa, 24 h); more than 50 µM in the data set with HeLa (Homo sapiens, HeLa, 24 h); more than 50 µM in the data set with MCF7 [3] (Homo sapiens, MCF7, 24 h); more than 50 µM in data set [4] (Homo sapiens, DU-145, 24 h); more than 50 µM in the data set with MDA-MB-231 [5] (Homo sapiens, MDA-MB-231, 24 h).

As to `CC/C(=C(\c1ccc(O)cc1)c1ccc(OCCN(C)C)cc1)c1ccccc1` [AFIMOXIFENE], the EC50 with Ishikawa (Homo sapiens, Ishikawa, 24 h) was determined as 11.5 µM; in the data set on MCF7 [3] (Homo sapiens, MCF7, 24 h), 8.8 µM; in data set [4] (Homo sapiens, DU-145, 24 h), 10 µM; with MDA-MB-231 [5] (Homo sapiens, MDA-MB-231, 24 h) it was 8 µM; in the data set on MDA-MB-231 [7], 7.8 µM. Moreover, the selectivity ratio in data set [1] turned out to be 1.28.

Consider `COc1ccc(/C(=N\OCCN2CCOCC2)c2cccc3ccccc23)cc1`, for which the EC50 with Ishikawa (Homo sapiens, Ishikawa, 24 h) was more than 50 µM; with HeLa (Homo sapiens, HeLa, 24 h) it was more than 50 µM; in the data set on MCF7 [3] (Homo sapiens, MCF7, 24 h), 20 µM; in [4] (Homo sapiens, DU-145, 24 h) it was more than 50 µM; in the data set with MDA-MB-231 [5] (Homo sapiens, MDA-MB-231, 24 h), 25 µM.

As to `COc1ccc(/C(=N\OCCCN(C)C)c2cccc3ccccc23)cc1`, the EC50 in the data set with Ishikawa (Homo sapiens, Ishikawa, 24 h) is more than 50 µM; in the data set on HeLa (Homo sapiens, HeLa, 24 h), more than 50 µM; with MCF7 [3] (Homo sapiens, MCF7, 24 h), 20.5 µM; in data set [4] (Homo sapiens, DU-145, 24 h) it was more than 50 µM; with MDA-MB-231 [5] (Homo sapiens, MDA-MB-231, 24 h), more than 50 µM.

Regarding `CCN(CCCCO/N=C(\c1ccc(SC)cc1)c1cccc2ccccc12)Cc1ccccc1`, the concentration giving a half-maximal response (EC50) with Ishikawa (Homo sapiens, Ishikawa, 24 h) was more than 50 µM; in the data set with HeLa (Homo sapiens, HeLa, 24 h), 10 µM; in the data set with MCF7 [3] (Homo sapiens, MCF7, 24 h) it was more than 50 µM; in data set [4] (Homo sapiens, DU-145, 24 h) it was more than 50 µM; in the data set with MDA-MB-231 [5] (Homo sapiens, MDA-MB-231, 24 h) it was more than 50 µM.

As for `CCN(CC)CCO/N=C(\c1ccc(SC)cc1)c1cccc2ccccc12` [listing 3 of 3 here], the EC50 (with Ishikawa (ishikawa); in the data set with HeLa (hela); with MCF7 [3] (mcf7); in [4] (du-145); in the data set on MDA-MB-231 [5] (mda-mb-231)) was more than 50 µM throughout.
